Data reported in patent US11396496B2, “1,4-substituted isoquinoline inhibitors of KEAP1/NRF2 protein-protein interaction” (THE BOARD OF TRUSTEES OF THE UNIVERSITY OF ILLINOIS, priority 2018, dated 2022).
pIC50: −log10 of the molar value.

Columns and labels:
[1] = target: Kelch domain of KEAP1 (Homo sapiens (Human), UniProt Q14145); assay: Fluorescence anisotropy assay of KEAP1-NRF2 interaction inhibition; type: binding; conditions: for binding affinity (in words): qualitative statement on the fluorescence anisotropy results
Procedure: The IC50 of the compounds for inhibiting the interaction of a fluorescent NRF2 peptide and the Kelch domain of KEAP1 was determined using fluorescence anisotropy. See Inoyama et al., J. Biomol.
Test compounds' ability to inhibit the KEAP1-NRF2 interaction were assayed using the Kelch domain of KEAP1 and a fluorescein-labeled 9-mer peptide containing the ETGE motif of the Neh2 domain of NRF2. The experiments were performed in triplicate, and sigmoidal concentration-response curves were fitted to the data using Graphpad Prism 6.1 software.

[2] = tested on: NADPH quinone oxidoreductase (NQO1); assay: NRF2 target gene activation: NQO1 protein levels by Western Blot in HaCaT keratinocytes; type: cell-based, human; conditions: HaCaT cells, 10 μM compound, 6 h
Procedure: (§1) Molecules that block the degradatior of NRF2 serve as NRF2 activators. This has the effect of stabilizing NRF2 protein levels and upregulating target gene levels, such as NQO1. […] CDDO is a positive control compound that activates NRF2 through an electrophilic mechanism. […] HaCat Cells were treated with 10 μM compound unless otherwise indicated.
(§2) Spontaneously immortalized human keratinocytes (HaCaT cell line) were grown in Dubecco's modified Eagle's medium (DMEM) with 10% fetal bovine serum and 1% antibiotics. […] Cells were lysed in a 20 mM Tris (pH 7.5) buffer containing 150 mM NaCl, 1 mM EDTA, 1 mM EGTA, 1% Triton X-100, 2.5 mM sodium pyrophosphate, 1 mM Na3VO4, 5 mM β-glycerophosphate, and 1 μg/mL leupeptin. Equal amount of protein (˜40 μg) was separated on a 10% SDS-PAGE, blotted on the membrane, and probed with antiNRF2, or anti-NQO1 antibody. […] CDDO is a positive control compound that activates NRF2 through an electrophilic mechanism.

[3] = tested on: NRF2; assay: NRF2 stabilization by Western Blot in HaCaT keratinocytes; type: cell-based, human; conditions: HaCaT cells, 10 μM compound, 6 h, relative to vehicle (DMSO) control
Procedure: as §1, §2

[4] = Microsomal stability study; type: in vitro ADME; conditions: human liver microsomes in buffer, 20 min
From the text: LC-MS grade acetonitrile (MeCN), methanol (MeOH), formic acid, and biology grade DMSO were purchased from Fisher Scientific (Pittsburgh, Pa.). LC-MS grade water was generated using a Barnstead Nanopure Diamond water system (Thermo Scientific, Pittsburgh, Pa.). All other reagents, if not specified, were purchased from Sigma-Aldrich (Saint Louis, Mo.). Pooled human liver microsomes and mouse liver microsomes were purchased from Sekisui XenoTech (Kansas City, Kans.). Preparation of Standard. The initial stock solutions of test compounds were prepared in DMSO at 10 mM, and then diluted with MeOH to 200 μM before use. All stock solutions were stored at −20° C. Liver microsomes were aliquoted upon arrival and stored at −80° C. Samples were analyzed on a Shimadzu 8040 triple-quadrupole mass spectrometer (Shimadzu, Addison, Ill.) equipped with electrospray ion source and Shimadzu Nexera XR UHPLC system. Mobile phase A contained water with 0.025% (v/v) FA, and mobile phase B consisted of MeCN with 0.1% (v/v) FA. Five microliters of sample was injected. Study compounds were eluted on a Kinetex C18 column (3.0×50 mm, 2.6 μm; Phenomenex, Torrance, Calif.) at 500 μL/min using a gradient program: mobile phase B started and maintained at 15% for 1 min, then increased to 95% in 4 min. Nebulizing gas flow and drying gas flow were set to 2 and 15 L/min. DL temperature, heat block temperature, and ion spray voltage were maintained at 300° C., 450° C. and 4500 V, respectively.

[5] = Log D7.4 (1-octanol / HEPES buffer pH 7.4); type: physicochemical; conditions: HEPES buffer pH 7.4 / 1-octanol, mean of triplicate; for logD at 1 h: 1-octanol / HEPES buffer
Procedure: This solution was diluted to nine known concentration solutions (1200, 800, 400, 120, 80, 40, 12, 8, and 4 μM) in MeCN. Each solution was analyzed by HPLC, and a calibration curve was plotted using the peak areas from the standard concentrations. 20 μL of the 10 mM DMSO stock solution of each compound was partitioned between […] of buffer (200 mM HEPES, 150 mM NaCl, pH 7.4) and […] of 1-octanol. The mixture was mixed for 1 h. Each layer was injected separately onto a Shimadzu LC-20AB HPLC system (Solvent system: gradient from 15% MeCN/85% H2O to 95% MeCN/5% H2O (+0.1% formic acid) over 13 min; Column, Shimadzu C18, […], 50×4.6 mm; UV, 254 nm). The equilibrium solubility in the buffer layer and the 1-octanol layer of test compounds was determined by quantifying the concentration of test solutions against the calibration curve. Experiments were run in triplicate, and results were tabulated and reported as mean. […] Thus, including an electron withdrawing group at position R^4 results in improved pharmacokinetics, such as an improved ability to cross cell membranes.

[6] = fluorescent NRF2 peptide and Kelch domain of KEAP1, fluorescence anisotropy

Chain of Kelch domain of KEAP1 (Q14145 321-609): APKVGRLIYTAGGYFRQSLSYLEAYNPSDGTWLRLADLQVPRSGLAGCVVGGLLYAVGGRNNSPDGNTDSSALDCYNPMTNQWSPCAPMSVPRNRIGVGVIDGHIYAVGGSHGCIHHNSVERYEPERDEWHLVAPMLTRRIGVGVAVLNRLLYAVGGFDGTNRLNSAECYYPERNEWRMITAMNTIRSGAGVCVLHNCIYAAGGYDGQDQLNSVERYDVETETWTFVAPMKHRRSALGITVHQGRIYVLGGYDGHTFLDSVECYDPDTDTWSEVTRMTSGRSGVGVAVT

| pIC50 ([1]; Table C, unit inferred) | pIC50 [1, 6] | Structure (SMILES) | also measured |
| --- | --- | --- | --- |
| 5.22 | 5.22 | COc1ccc(S(=O)(=O)Nc2ccc(CCC(=O)O)c3ccccc23)cc1 [Compound C11, 3-(4-((4-methoxyphenyl)sulfonamido)naphthalen-1-yl)propanoic acid] | – |
| < 4.60 | < 4.60 | COc1ccc(CCc2ccc(NS(=O)(=O)c3ccc(OC)cc3)c3ccccc23)cc1 [Compound C13, 4-methoxy-N-(4-(4-methoxyphenethyl)naphthalen-1-yl)benzenesulfonamide] | – |
| 5.03 | 5.03 | COc1ccc(S(=O)(=O)Nc2ccc(/C=C/C(=O)O)c3ccccc23)cc1 [Compound C9, (E)-3-(4-((4-methoxyphenyl)sulfonamido)naphthalen-1-yl)acrylic acid] | – |
| < 4.60 | < 4.60 | COc1ccc(S(=O)(=O)Nc2cnc(N3CCC[C@@H]3C(=O)O)c3ccccc23)cc1 [Compound C5, (4-((4-methoxyphenyl)sulfonamido)isoquinolin-1-yl)-D-proline] | – |
| < 4.60 | < 4.60 | COc1ccc(S(=O)(=O)Nc2cnc(N3CC[C@H](c4ccccc4)C3)c3ccccc23)cc1 [Compound C8, (R)-4-methoxy-N-(1-(3-phenylpyrrolidin-1-yl)isoquinolin-4-yl)benzenesulfonamide] | – |
| – | 6.28 | O=C(O)CN(c1cnc(N(CC(=O)O)S(=O)(=O)c2ccc(O)cc2)c2ccccc12)S(=O)(=O)c1ccc(O)cc1 [Compound A4, 2,2′-(isoquinoline-1,4-diylbis(((4-hydroxyphenyl)sulfonyl)azanediyl))diacetic acid] | binding affinity (in words) [1]: high binding affinities |
| – | 6.67 | COc1ccc(S(=O)(=O)Nc2cnc(N(CC(=O)O)S(=O)(=O)c3ccc(OC)cc3)c3ccccc23)cc1 [Compound A6, N-(4-((4-methoxyphenyl)sulfonamido)isoquinolin-1-yl)-N-((4-methoxyphenyl)sulfonyl)glycine] | levels of NQO1 [2]: increase the levels of NQO1; stabilization of NRF2 expression [3]: stabilize NRF2 expression; metabolic stability [4]: degraded substantially; logD [5]: −1.6 |
| – | 5.91 | [2H]C([2H])([2H])N(c1cnc(N(CC(=O)O)S(=O)(=O)c2ccc(OC)cc2)c2ccccc12)S(=O)(=O)c1ccc(OC)cc1 [Compound A9, N-(4-((4-methoxy-N-(methyl-d3)phenyl)sulfonamido)isoquinolin-1-yl)-N-((4-methoxyphenyl)sulfonyl)glycine] | metabolic stability [4]: degraded substantially; binding affinity (in words) [1]: significantly diminished the binding affinity |
| 5.30 | 5.30 | COc1ccc(S(=O)(=O)Nc2cnc(N3CCC[C@H]3C(=O)O)c3ccccc23)cc1 [Compound C6, (4-((4-methoxyphenyl)sulfonamido)isoquinolin-1-yl)-L-proline] | – |
| – | 6.46 | O=C(O)CN(c1cnc(N(CC(=O)O)S(=O)(=O)c2ccc(F)cc2)c2ccccc12)S(=O)(=O)c1ccc(F)cc1 [Compound A5, 2,2′-(isoquinoline-1,4-diylbis(((4-fluorophenyl)sulfonyl)azanediyl))diacetic acid] | binding affinity (in words) [1]: high binding affinities |
| – | 5.96 | COc1ccc(S(=O)(=O)N(C)c2cnc(N(CC(=O)O)S(=O)(=O)c3ccc(OC)cc3)c3ccccc23)cc1 [Compound A8, N-(4-((4-methoxy-N-methylphenyl)sulfonamido)isoquinolin-1-yl)-N-((4-methoxyphenyl)sulfonyl)glycine] | metabolic stability [4]: degraded substantially; binding affinity (in words) [1]: significantly diminished the binding affinity; logD at 1 h [5]: 0 |
| – | 5.92 | COc1ccc(S(=O)(=O)Nc2ncc(N(CC(=O)O)S(=O)(=O)c3ccc(OC)cc3)c3ccccc23)cc1 [Compound A2, N-(1-((4-methoxyphenyl)sulfonamido)isoquinolin-4-yl)-N-((4-methoxyphenyl)sulfonyl)glycine] | logD at 1 h [5]: -0.5 |
| – | – | COc1ccc(S(=O)(=O)N(CC(F)(F)F)c2cnc(N(CC(=O)O)S(=O)(=O)c3ccc(OC)cc3)c3ccccc23)cc1 [Compound B0, N-(4-((4-methoxy-N-(2,2,2-trifluoroethyl)phenyl)sulfonamido)isoquinolin-1-yl)-N-((4-methoxyphenyl)sulfonyl)glycine] | logD at 1 h [5]: 0.5 |
| < 4.60 | < 4.60 | COc1ccc(S(=O)(=O)Nc2cnc(N3CC[C@@H](c4ccccc4)C3)c3ccccc23)cc1 [Compound C7, (S)-4-methoxy-N-(1-(3-phenylpyrrolidin-1-yl)isoquinolin-4-yl)benzenesulfonamide] | – |
| – | – | COc1ccc(S(=O)(=O)N(CC(=O)O)c2cnc(N(CC(=O)O)S(=O)(=O)c3ccc(OC)cc3)c3ccccc23)cc1 [Compound A1, 2,2′-(isoquinoline-1,4-diylbis(((4-methoxyphenyl)sulfonyl)azanediyl))diacetic acid] | logD [5]: −1.5 |
| – | 5.70 | COc1ccc(S(=O)(=O)N(C)c2ncc(N(CC(=O)O)S(=O)(=O)c3ccc(OC)cc3)c3ccccc23)cc1 [Compound A3, N-(1-((4-methoxy-N-methylphenyl)sulfonamido)isoquinolin-4-yl)-N-((4-methoxyphenyl)sulfonyl)glycine] | metabolic stability [4]: significantly more metabolically stable; logD at 1 h [5]: 0 |
